The text below walks through data of paper PMC9592989, “Determination of (-)-epigallocatechin-3-gallate octaacetate and its metabolites in plasma of rats for pharmacokinetic study by ultra-performance-liquid-chromatography coupled to quadrupole-time-of-flight-mass-spectrometry” (Frontiers in Pharmacology, 2022).

For orientation: Cmax means the maximum level reached in the sampled fluid or tissue. For orientation: AUC means the area under the concentration-time curve, a measure of exposure. What is called MRT is the average time that molecules of a dose stay in the body.

Read-outs that look alike come from different tables or passages of the source.

A short description of data set [1]: Pharmacokinetic study in SD rats after intragastric administration of pro-EGCG, plasma by UPLC-Qtof-MS. The class given is in vivo, Sprague Dawley (SD) rats. The protocol: Fourteen to 16-weeks old female Sprague Dawley (SD) rats at reproductive age and of approximately 250 g were grouped in different cages in an air-conditioned room (22 ± 2°C) with a 12-h controlled lighting cycle. The SD rats were fed with standard chow and given free access to water. They were acclimatized for 1 week before the experiment. The study was approved by the Animal Experimentation Ethics Committee of the Chinese University of Hong Kong and was performed according to institutional guidelines. For validation studies, the rats were fasted overnight and then anesthetized by inhaling isoflurane (Baxter, IL, United States) for 15 min. Blank blood samples, approximately 10 mL, were withdrawn by cardiac puncture after experiments and before sacrifice.
Venous blood drawn from the SD rats was stored in an EDTA tube in an […] ice bath for not more than 10 min and centrifuged at 1780 × g and […] for 10 min. Plasma was aliquoted in 50 μL, mixed with 6 µL formic acid, and either immediately processed or stored at -80°C.
The extraction procedure was modified from our previous study ([Chu et al., 2014]). A plasma aliquot was spiked with 2.5 µL of 100 μg/mL pro-EGCG internal standard and mixed with 300 µL of isopropanol and 3 µL of formic acid. After vortexing for 2 min and sonicating for 2 min, 1 mL of MTBE and 150 µL magnesium chloride 0.043% solution were added. The mixture was again vortexed for 2 min and sonicated for 2 min. After settling, the mixture was centrifuged at 2,624 × g and 4°C for 10 min. The supernatant was pipetted into a glass tube by a glass Pasteur pipette and avoided touching the protein layer. The remaining aqueous layer was re-extracted by isopropanol and MTBE as described above. The supernatant was mixed with the previous extract and purged to dryness by nitrogen. The dried residues were dissolved in 100 µL methanol, sonicated for 30 s, vortexed for 2 min, and centrifuged at 3,634 × g at 4°C for 15 min. The supernatant was transferred to an HPLC vial for LCMS analysis. Methanol can completely dissolve pro-EGCG and precipitate protein matrix from the residues.
Plasma extract was analyzed by Agilent 6,540 Liquid chromatography-electrospray ionization quadrupole-TOF Mass Spectrometer. The extract, 8 μL, was separated by Waters Cortex UPLC C18 1.6 µm × 2.1 × 150 mm column (Waters, Milford, MA). Mobile phase A was 0.1 mM ammonia solution/acetonitrile/methanol/formic acid [80:15:5:0.2 (v/v/v/v)] and mobile phase B acetonitrile/methanol/0.1 mM ammonia solution/formic acid [92.5:5:2.5:0.2 (v/v/v/v)]. The column temperature was 40°C and the flow rate was 0.4 mL/min. The binary elusion program: 20% B, 0–2 min; 20%–60% B, 2–10 min; 60%–100% B, 10–11 min; 100% B, 11–18 min; 100%–20% B, 18–19 min; 20% B, 19–24 min. Positive electrospray ionization was used with capillary voltage (VCap) at 4500V, nozzle voltage at 1000 V, the gas temperature at 300°C, drying gas at 8 L/min, nebulizer pressure at 40 psi, sheath gas temperature at 300°C, and sheath gas flow at 11 L/min. The acquisition range was 100–1,000 m/z. The exact mass method was used for quantification at the range of 812.2043 ± 0.06 m/z for pro-EGCG ammonium adduct [M + NH4]^+ and 803.2039 ± 0.06 m/z for internal standard pro-EGCG-1–13C8 hydrogen adduct [M + H]^+. The mass was locked by continuous infusion of calibration standards with lock mass calibrated at 922.0 m/z.
For analysis of the metabolites, the predicted masses of pro-EGCG metabolites as calculated from de-acetylation, glucuronidation, sulphation, and methylation were scanned from the chromatogram of the first-hour plasma samples after intragastric administration of pro-EGCG. For a particular metabolite, the predicted target molecular mass of the metabolite was submitted for MS/MS analysis within ± 1 min around the retention time of the peak. The chromatography and mass spectrum conditions were the same as above. The collision energy was set for […] and the daughter ion scan ranged from 100–1,000 Da. […]

Data set [2] is described as follows: Stability of pro-EGCG in rat plasma (room temperature; esterase inhibitors; formic acid). The class given is in vitro ADME. The settings on record: for stability of pro-EGCG in plasma at room temperature: 50 μg/mL pro-EGCG spiked in rat plasma, 0-60 min. On the procedure:
The stability of pro-EGCG in plasma at room temperature was assessed by spiking 50.0 μg/mL pro-EGCG into three sets of 50 µL plasma samples. Each plasma sample was spiked with 5.0 μg/mL pro-EGCG internal standard at time points 0, 3, 5, 10, 20, 30, and 60 min before snap-frozen by liquid nitrogen. The samples were processed as described above and analyzed by UPLC‐Qtof-MS.
We also evaluated the stabilizing effect of different esterase inhibitors. The inhibitors, 4-(2-aminoethyl-)benzenesulponylfluoride HCL (penfabloc), bis-nitophenyl phosphate (BNPP), N-α-tosyl-L-lysine chloromethylketone HCL (TLCK), and dichlorvos, at plasma level of 30 mM; a mixture of sodium fluoride–potassium oxalate (NaF-KO) at plasma level of 10.0 mg/mL and 8.0 mg/mL; and 6 µL formic acid in 50 µL fresh rat plasma sample were used. Subsequently, pro-EGCG was spiked into the blank rat plasma at 5.0 μg/mL in an ice bath for 10 min. An internal standard, 5.0 μg/mL, was added to the plasma samples and snap-frozen by liquid nitrogen at the 10th minute. Three sets of samples were tested. The samples were processed as above and analyzed by UPLC‐Qtof-MS.
The stability of pro-EGCG in plasma with formic acid was assessed by mixing 6 µL of formic acid with 5.0 μg/mL pro-EGCG in 50 µL plasma and stored in an ice bath. Each three plasma samples were spiked with 5.0 μg/mL pro-EGCG internal standard and snap-frozen by liquid nitrogen at time points 0, 10, 15, 20, 30, 45, and 60 min. The samples were analyzed as described. Stability (%)=calculated concentration of pro−EGCG under different treatment /actual spiked concentration×100%

Data set [3] in a line: Stability of pro-EGCG in processed plasma extracts on storage. In kind it is physicochemical. The settings on record: 5.0 μg/mL pro-EGCG of processed samples stored at 4°C for 7 days and 4 weeks at -20°C. On the procedure: Three processed plasma samples extracted at 5.0 μg/mL were stored at 4°C for a week. They were tested at t = 0 and 7 days. This duration was selected to ensure the test period is sufficient to cover a batch of samples for analysis in the auto-sampler ([Brodie and Hill, 2002]; [Department of Medical Sciences Ministry of Public Health, 2022]). […] This test period covered common the maximum storage period pending for batches of analysis.

Data set [4] relates to proteasome activity of breast cancer cells, MDA-MB231. On the set-up: method as in Landis-Piwowar et al., 2007. The settings on record: animal models, relative to EGCG, ref Landis-Piwowar et al., 2007; cited from earlier work.
In a further data set the test system is induced prostate cancer. On the set-up: method as in Lee et al., 2008. The settings on record: nude mice with induced prostate cancer; relative to EGCG; ref Lee et al., 2008; cited from earlier work.
Another data set has as its system induced skin tumors. On the set-up: method as in Chiou et al., 2013. To be noted: mice with induced skin tumors; ref Chiou et al., 2013; cited from earlier work.
For data set [5], the system named is human lung cancer H460 cells. The arrangement: method as in Heyza et al., 2018. To be noted: compared with EGCG treatment, ref Heyza et al., 2018; cited from earlier work.
For data set [6], the system named is plasma vascular endothelial growth factor (VEGF). The arrangement: method as in Wang et al., 2013. To be noted: mouse model with induced endometriotic lesions; ref Wang et al., 2013; cited from earlier work.
Details of data set [7]: method as in Lambert et al., 2006. The settings on record: intragastric administration, CF-1 mice; ref Lambert et al., 2006; cited from earlier work.
Setting [8] is: female, Sprague-Dawley, rat, plasma, po, 50 mg/kg, proposed metabolite in rat plasma after intragastric 50 mg/kg pro-EGCG, no standards, not confirmed, read-out: Tmax of pro-EGCG metabolite.
The mark [9] stands for this setting: female, Sprague-Dawley, rat, po, SD rats (n = 3), plasma, within 24 h after intragastric 50 mg/kg pro-EGCG, Mean ± SE.

In the case of `CC(=O)Oc1cc([C@H]2Oc3cc(O)cc(O)c3C[C@H]2OC(=O)c2cc(O)c(O)c(O)c2)cc(O)c1OC(C)=O` [EGCG-2Ac, (-)-epigallocatechin-gallate (EGCG) diacetates], the Tmax in data set [1] (setting [8]) is roughly 1 h.

Take `CC(=O)Oc1cc([C@H]2Oc3cc(O)cc(O)c3C[C@H]2OC(=O)c2cc(O)c(O)c(O)c2)cc(OC(C)=O)c1OC(C)=O` [EGCG-3Ac, EGCG triacetates]: the Tmax in data set [1] (setting [8]) was roughly 5 h. Besides, the “degradation of EGCG-3Ac (production rate of EGCG-2Ac)” value in data set [1] (rat plasma profile after intragastric 50 mg/kg pro-EGCG, peak ratio to internal standard) is on record as “about 1.25 × 10^−5 EGCG-3Ac/IS/hr”.

For the molecule `CC(=O)Oc1cc(OC(C)=O)c2c(c1)O[C@H](c1cc(OC(C)=O)c(OC(C)=O)c(OC(C)=O)c1)[C@H](OC(=O)c1cc(OC(C)=O)c(OC(C)=O)c(OC(C)=O)c1)C2` [pro-EGCG, (-)-Epigallocatechin-gallate octaacetate], the Cmax in data set [1] (female, Sprague-Dawley, oral, 50 mg/kg, non-compartmental analysis, rat plasma (n = 3) over 24 h) was 67 ± 0.04 ng/mL; in data set [1] (setting [9]), 67 ± 40 ng/mL. In addition, the Tmax in [1] (female, Sprague-Dawley, rat, plasma, po, 50 mg/kg, SD rats (n = 3), plasma, within 24 h after intragastric 50 mg/kg pro-EGCG, Mean ± SE, read-out: Tmax) was determined as 1.33 ± 0.33 h; in [1] (female, Sprague-Dawley, rat, plasma, po, 50 mg/kg, oral administration, SD rats, 50 mg/kg pro-EGCG, read-out: time-of-maximum-concentration (Tmax)), 1.33 h. Further, the AUC in [1] (female, Sprague-Dawley, rat, plasma, oral administration, SD rats, 50 mg/kg pro-EGCG, read-out: area-under-curve (AUC)) came to 200 ± 50 ng·h/mL. Besides, in data set [1] (setting [9]), the MRT came out at 12.9 ± 6.4 h. Besides, the k el in [1] (female, Sprague-Dawley, rat, po, SD rats (n = 3), plasma, within 24 h after intragastric 50 mg/kg pro-EGCG, Mean ± SE, read-out: Lambda Z (converted)) is 5.56e-05 s⁻¹. Moreover, the elimination-rate in data set [1] (oral administration, SD rats, 50 mg/kg pro-EGCG) is 0.20 ± 0.11 h⁻¹. Besides, the entries for the “stability of pro-EGCG in plasma at room temperature” value in data set [2] and in data set [2] (listed as Pro-EGCG) were “rapidly degraded” and “unstable”, respectively. The pro-EGCG remaining in [2] (formic acid treated plasma (6 µL in 50 µL), 5.0 μg/mL, 10 min in an ice bath, Mean ± SD, n = 3) worked out at 103 ± 3.6%. In data set [2] (other esterase inhibitors treated plasma (TLCK, BNPP, dichlorvos, pefabloc 30 mM; NaF-KO), 5.0 μg/mL, 10 min in an ice bath), the pro-EGCG left entry is “less than 22%”. For the same molecule, the Pro-EGCG remained entry in data set [3] is on record as “above 95%”. In [4], the “potency in inhibiting proteasome activity compared to the equivalent amount of EGCG” value is listed as “more than two-fold”. Further, in the data set with induced prostate cancer, the “tumor volume smaller after pro-EGCG treatment than EGCG treatment” value is listed as 40.1%. In addition, the “average number of tumors per mouse” value in the data set on induced skin tumors is “three folds lower”. The tumor incidences result with induced skin tumors is reported as “three folds lower”. Further, the “half-maximal inhibitory concentration (IC50) of clonogenicity” value in data set [5] is given as “slightly lower”. The “plasma VEGF concentration relative to the concentration treated by EGCG” value in data set [6] is “two-thirds”. For the same molecule, the “bioavailability of EGCG compared with EGCG administered at equimolar doses” value in [7] is given as “higher”.
